# Results from ChEMBL document CHEMBL4184112, “Spiroorthoester group-containing pregnane glycosides from the root barks of Periploca chrysantha and their inhibitory activities against the proliferation of B and T lymphocytes” (Bioorg Med Chem Lett, 2018).
# Legend:
# [1] = Inhibition of LPS-induced B lymphocytes (unknown origin) proliferation; assay type: functional
# [2] = Cytotoxicity against lymphocytes (unknown origin) assessed as decrease in cell viability; assay type: cell-based, Lymphocyte
# T-cell = assay: Inhibition of ConA-induced T lymphocytes (unknown origin) proliferation; assay type: functional, cell-based
# [3] = Selectivity index, ratio of CC50 for lymphocytes (unknown origin) to IC50 for LPS-induced B lymphocytes (unknown origin) proliferation; assay type: toxicity; conditions: read-out: Ratio CC50/IC50
# [4] = Selectivity index, ratio of CC50 for lymphocytes (unknown origin) to IC50 for ConA-induced T lymphocytes (unknown origin) proliferation; assay type: toxicity; conditions: read-out: Ratio CC50/IC50
structure (smiles),measurement,setting,value
CO[C@H]1[C@@H](O)[C@@H](C)O[C@@H](O[C@H]2[C@@H](OC)C[C@H](O[C@H]3[C@H](O)C[C@H](O[C@H]4[C@@H](OC)C[C@H](O[C@@H]5[C@@H](C)O[C@@]6(C[C@H]5OC)OCO[C@@H]5C[C@H](O[C@@H](C)[C@@]7(O)CC[C@H]8[C@@H]9CC=C%10C[C@@H](O)CC[C@]%10(C)[C@H]9CC[C@@]87C)O[C@H](C)[C@H]5O6)O[C@@H]4C)O[C@@H]3C)O[C@@H]2C)[C@@H]1OC(C)=O,IC50,[1],1.13 µM
same,CC50,[2],124 µM
same,IC50,T-cell,0.18 µM
same,selectivity ratio,[3],110
same,selectivity ratio,[4],706
CO[C@H]1C[C@H](O[C@H]2[C@@H](OC)C[C@H](O[C@H]3[C@H](O)C[C@H](O[C@H]4[C@@H](O)C[C@H](O[C@@H]5[C@@H](C)O[C@@]6(C[C@H]5OC)OCO[C@@H]5C[C@H](O[C@@H](C)[C@@]7(O)CC[C@H]8[C@@H]9CC=C%10C[C@@H](O)CC[C@]%10(C)[C@H]9CC[C@@]87C)O[C@H](C)[C@H]5O6)O[C@@H]4C)O[C@@H]3C)O[C@@H]2C)O[C@H](C)[C@H]1OC(C)=O,IC50,[1],1.74 µM
same,CC50,[2],> 200 µM
same,IC50,T-cell,1.47 µM
same,selectivity ratio,[3],> 145
same,selectivity ratio,[4],> 136
CO[C@H]1[C@@H](O)[C@@H](C)O[C@@H](O[C@H]2[C@@H](OC)C[C@H](O[C@H]3[C@@H](OC)C[C@H](O[C@H]4[C@@H](O)C[C@H](O[C@@H]5[C@@H](C)O[C@@]6(C[C@H]5OC)OCO[C@@H]5C[C@H](O[C@@H](C)[C@@]7(O)CC[C@H]8[C@@H]9CC=C%10C[C@@H](O)CC[C@]%10(C)[C@H]9CC[C@@]87C)O[C@H](C)[C@H]5O6)O[C@@H]4C)O[C@@H]3C)O[C@@H]2C)[C@@H]1O,IC50,[1],0.75 µM
same,CC50,[2],> 200 µM
same,IC50,T-cell,0.47 µM
same,selectivity ratio,[3],> 267
same,selectivity ratio,[4],> 426
CO[C@H]1[C@@H](O)[C@@H](C)O[C@@H](O[C@H]2[C@@H](OC)C[C@H](O[C@H]3[C@@H](OC)C[C@H](O[C@H]4[C@@H](OC)C[C@H](O[C@@H]5[C@@H](C)O[C@@]6(C[C@H]5OC)OCO[C@@H]5C[C@H](O[C@@H](C)[C@@]7(O)CC[C@H]8[C@@H]9CC=C%10C[C@@H](OC=O)CC[C@]%10(C)[C@H]9CC[C@@]87C)O[C@H](C)[C@H]5O6)O[C@@H]4C)O[C@@H]3C)O[C@@H]2C)[C@@H]1O,IC50,[1],0.86 µM
same,CC50,[2],146 µM
same,IC50,T-cell,0.42 µM
same,selectivity ratio,[3],170
same,selectivity ratio,[4],347
